From publication PMC5590646 (Biochemistry, 2015)
Like-named read-outs stand apart in the source and are kept apart here. Marks after values point to notes of the source that are not given here.

Experiments:
PR20 [1] = conditions: darunavir; cited from earlier work
[2] = target: PR (pseudo-wild-type mature HIV-1 protease); conditions: cited from earlier work
PR20 [3] = assay: DSC thermal stabilisation by inhibitor; assay type: binding, HIV-1; conditions: for ΔTm of PR20 smaller than that of PR20^PR-123: DSC, PR20 vs PR20^PR-123
TFR-PR precursor = conditions: cited from earlier work; for IC50: read-out: IC50 for inhibition of autoprocessing
PR = conditions: cited from earlier work
PR20 [4] = conditions: read-out: inhibition constant Ki; cited from earlier work
TFR-PR20 precursor = conditions: read-out: IC50 for inhibition of autoprocessing; cited from earlier work

Row | Structure (SMILES) | ΔTm (with inhibitor), DSC (PR20 [1]) | Ki ([2]; read-out: inhibition constant Ki, darunavir, ref refs and [50]) | ΔTm of PR20 smaller than that of PR20^PR-123 (PR20 [3]) | concentration that completely inhibits autoprocessing (TFR-PR precursor) | IC50 (TFR-PR precursor) | ΔTm (with inhibitor), DSC (PR; darunavir) | Ki (PR20 [4]) | Ki ([2]; read-out: inhibition constant Ki, saquinavir) | ΔTm (with inhibitor), DSC (PR20 [3]; PR20, saquinavir, 2fold molar excess of inhibitor over dimer, buffer A) | IC50 (TFR-PR20 precursor) | ΔTm (with inhibitor), DSC (PR; saquinavir)
1 | CC(C)CN(C[C@@H](O)[C@H](Cc1ccccc1)NC(=O)O[C@H]1CO[C@H]2OCC[C@H]21)S(=O)(=O)c1ccc(N)cc1 [darunavir] | 5.3 ^b °C | ≤ 0.01 nM | 9–11 °C | 1 to 3 µM | 1000 to 2000 nM | 22.4 ^c °C | 41 ± 10 nM |  |  |  | 
2 | CC(C)(C)NC(=O)[C@@H]1C[C@@H]2CCCC[C@@H]2CN1C[C@@H](O)[C@H](Cc1ccccc1)NC(=O)[C@H](CC(N)=O)NC(=O)c1ccc2ccccc2n1 [saquinavir] |  |  | 9–11 °C | 1 to 3 µM | 1000 to 2000 nM |  | 930 ± 93 nM | 0.28 ± 0.02 nM | 2.9 °C | > 150000 nM | 19.3 ^d °C
